Reference: PMC6175577, “BRCT domains of the DNA damage checkpoint proteins TOPBP1/Rad4 display distinct specificities for phosphopeptide ligands” (eLife, 2018)
Changes are numbered by the printed parent chain. One block for each compound: values may come before it. Where a SMILES comes first, the peptide text is derived from it. [ ]: non-standard residue; d: D form. The star is where a group is joined. 5FAM = O=C1OC2(c3ccc(O)cc3Oc3cc(O)ccc32)c2ccc(C(=O)*)cc21; pT = C[C@@H](OP(=O)(O)O)[C@H](N)C(=O)O; pS = N[C@@H](COP(=O)(O)O)C(=O)O

Key:
TOPBP1-BRCT0,1,2 WT = biological target: T1, TOPBP1-BRCT0,1,2 WT (Homo sapiens, UniProt Q92547); experiment: Fluorescence polarisation titration, TOPBP1-BRCT0,1,2 wild-type; type: binding; conditions: read-out: Kd
T1 construct: made in house; host or cells: E. coli BL21(DE3)
T1 sequence (Q92547 1-290 limits assumed): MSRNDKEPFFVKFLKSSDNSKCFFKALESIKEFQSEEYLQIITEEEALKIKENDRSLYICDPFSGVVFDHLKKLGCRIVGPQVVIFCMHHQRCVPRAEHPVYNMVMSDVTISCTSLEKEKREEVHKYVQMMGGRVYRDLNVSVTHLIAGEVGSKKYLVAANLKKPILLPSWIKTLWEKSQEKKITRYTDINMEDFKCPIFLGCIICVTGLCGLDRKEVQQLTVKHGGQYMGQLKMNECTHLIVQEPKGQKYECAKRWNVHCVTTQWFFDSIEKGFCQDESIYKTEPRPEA
Procedure: (§1) Fluorescein-labelled peptides (Peptide Protein Research Ltd, Fareham, UK) at a concentration of 200 nM, were incubated at room temperature with increasing concentrations of recombinant protein in 25 mM HEPES pH 7.5, 150 mM NaCl, 1 mM EDTA, 0.25 mM TCEP, 0.02% (v/v) Tween-20. Four parallel replicates of each titration were dispensed into a black 96-well polypropylene plate (VWR, Lutterworth, UK) for measurement. Fluorescence polarisation was measured in a CLARIOstar multimode microplate reader (BMG Labtech, Aylesbury, UK). Binding curves represent the mean of 4 independent experiments, with error bars indicating one standard deviation. All data were fitted by non-linear regression, to a one site-specific binding model in Prism seven for Mac OS X (v 7.0d, GraphPad Software) in order to calculate the reported dissociation constants (Kd). Low-affinity non-specific responses for which a binding curve could not be determined are marked as ND.

TOPBP1-BRCT0,1,2 K155E = biological target: T2, TOPBP1-BRCT0,1,2 K155E (Homo sapiens, UniProt Q92547, K155E); experiment: Fluorescence polarisation titration, TOPBP1-BRCT0,1,2 K155E (BRCT1 mutant); type: binding; conditions: read-out: Kd
T2 construct: made in house; host or cells: E. coli BL21(DE3)
T2 sequence (Q92547 1-290 K155E limits assumed): as the sequence (Q92547 1-290 limits assumed) above, with K155E counted along it
Procedure: as §1

TOPBP1-BRCT0,1,2 K250E = biological target: T3, TOPBP1-BRCT0,1,2 K250E (Homo sapiens, UniProt Q92547, K250E); experiment: Fluorescence polarisation titration, TOPBP1-BRCT0,1,2 K250E (BRCT2 mutant); type: binding; conditions: read-out: Kd
T3 construct: made in house; host or cells: E. coli BL21(DE3)
T3 sequence (Q92547 1-290 K250E limits assumed): as the sequence (Q92547 1-290 limits assumed) above, with K250E counted along it
Procedure: as §1

TOPBP1-BRCT4,5 = biological target: T4, TOPBP1-BRCT4,5 (Homo sapiens, UniProt Q92547); experiment: Fluorescence polarisation titration, TOPBP1-BRCT4,5; type: binding; conditions: read-out: Kd
T4 construct: made in house; host or cells: E. coli BL21(DE3)
T4 sequence (Q92547 549-746 limits assumed): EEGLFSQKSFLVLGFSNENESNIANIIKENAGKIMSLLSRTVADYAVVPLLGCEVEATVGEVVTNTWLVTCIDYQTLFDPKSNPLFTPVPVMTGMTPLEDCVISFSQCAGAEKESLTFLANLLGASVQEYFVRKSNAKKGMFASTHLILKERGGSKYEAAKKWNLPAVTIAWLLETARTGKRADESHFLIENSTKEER
Procedure: as §1

Rad4-BRCT1,2 WT = biological target: T5, Rad4-BRCT1,2 WT (Schizosaccharomyces pombe, UniProt P32372); experiment: Fluorescence polarisation titration, Rad4-BRCT1,2 wild-type; conditions: FP, fluorescein-peptide 200 nM, HEPES pH 7.5, room temperature, one-site fit, 4 replicates; ND = low-affinity non-specific response, no binding curve
T5 construct: made in house; host or cells: E. coli BL21(DE3)
T5 sequence (P32372 1-186 limits assumed): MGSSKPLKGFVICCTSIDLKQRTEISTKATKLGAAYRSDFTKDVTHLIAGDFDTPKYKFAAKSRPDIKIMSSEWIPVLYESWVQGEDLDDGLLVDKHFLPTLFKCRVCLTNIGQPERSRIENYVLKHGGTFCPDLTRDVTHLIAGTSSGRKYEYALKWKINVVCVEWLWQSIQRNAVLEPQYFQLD
Procedure: as §1

Rad4-BRCT1,2 K56E = biological target: T6, Rad4-BRCT1,2 K56E (Schizosaccharomyces pombe, UniProt P32372, K56E); experiment: Fluorescence polarisation titration, Rad4-BRCT1,2 K56E (BRCT1 mutant); type: binding; conditions: FP, fluorescein-peptide 200 nM, HEPES pH 7.5, room temperature, one-site fit, 4 replicates
T6 construct: made in house; host or cells: E. coli BL21(DE3)
T6 sequence (P32372 1-186 K56E limits assumed): T5 sequence (P32372 1-186 limits assumed) with K56E
Procedure: as §1

Rad4-BRCT1,2 K151E = biological target: T7, Rad4-BRCT1,2 K151E (Schizosaccharomyces pombe, UniProt P32372, K151E); experiment: Fluorescence polarisation titration, Rad4-BRCT1,2 K151E (BRCT2 mutant); conditions: FP, fluorescein-peptide 200 nM, HEPES pH 7.5, room temperature; ND = low-affinity non-specific response, no binding curve
T7 construct: made in house; host or cells: E. coli BL21(DE3)
T7 sequence (P32372 1-186 K151E limits assumed): T5 sequence (P32372 1-186 limits assumed) with K151E
Procedure: as §1

Rad4-BRCT3,4 = biological target: T8, Rad4-BRCT3,4 (Schizosaccharomyces pombe, UniProt P32372); experiment: Fluorescence polarisation titration, Rad4-BRCT3,4; conditions: FP, fluorescein-peptide 200 nM, HEPES pH 7.5, room temperature; ND = low-affinity non-specific response, no binding curve
T8 construct: made in house; host or cells: E. coli BL21(DE3)
T8 sequence (P32372 291-494 limits assumed): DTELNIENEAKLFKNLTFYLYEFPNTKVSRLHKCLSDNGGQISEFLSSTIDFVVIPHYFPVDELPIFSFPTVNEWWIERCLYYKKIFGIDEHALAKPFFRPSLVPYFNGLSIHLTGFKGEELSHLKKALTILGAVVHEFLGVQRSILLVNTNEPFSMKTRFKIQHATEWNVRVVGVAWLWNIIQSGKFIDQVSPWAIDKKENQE
Procedure: as §1

Kd (TOPBP1-BRCT0,1,2 WT): 600 ± 30 nM | Kd (TOPBP1-BRCT0,1,2 K155E): 730 ± 40 nM | Kd (TOPBP1-BRCT0,1,2 K250E): 350 ± 130 nM
Structure (SMILES): CC[C@H](C)[C@H](NC(=O)[C@H](CCC(=O)O)NC(=O)[C@H](CC(=O)O)NC(=O)CNC(=O)[C@H](CCCCN)NC(=O)[C@H](CCC(=O)O)NC(=O)[C@@H]1CCCN1C(=O)[C@H](COP(=O)(O)O)NC(=O)[C@H](CCC(=O)O)NC(=O)[C@H](CCC(=O)O)NC(=O)[C@@H](NC(=O)[C@@H](NC(=O)CNC(=O)[C@@H](NC(=O)[C@H](CC(=O)O)NC(=O)CNC(=O)[C@H](Cc1ccc(O)cc1)NC(=O)CNC(=O)c1ccc2c(c1)C(=O)OC21c2ccc(O)cc2Oc2cc(O)ccc21)[C@@H](C)CC)C(C)C)C(C)C)C(=O)O [Treslin pT1001] (5FAM-GYGDIGVVEE[pS]PEKGDEI-OH)

Kd (TOPBP1-BRCT4,5): 3.46 ± 0.54 µM
Structure (SMILES): CC[C@H](C)[C@H](NC(=O)[C@H](CCC(=O)O)NC(=O)[C@H](CCC(=O)O)NC(=O)[C@@H]1CCCN1C(=O)[C@H](COP(=O)(O)O)NC(=O)[C@@H]1CCCN1C(=O)[C@@H]1CCCN1C(=O)[C@@H](NC(=O)[C@H](Cc1ccccc1)NC(=O)[C@H](CC(=O)O)NC(=O)[C@@H](NC(=O)[C@H](CC(=O)O)NC(=O)CNC(=O)[C@H](Cc1ccc(O)cc1)NC(=O)CNC(=O)c1ccc2c(c1)C(=O)OC21c2ccc(O)cc2Oc2cc(O)ccc21)[C@@H](C)O)C(C)C)C(=O)N[C@H](C(=O)N[C@@H](CO)C(=O)N[C@@H](C)C(=O)O)[C@@H](C)CC [BLM pS304, reference compound] (5FAM-GYGDTDFVPP[pS]PEEIISA-OH)

Structure (SMILES): CSCC[C@H](NC(=O)[C@@H](NC(=O)CNC(=O)CNC(=O)[C@H](Cc1ccc(O)cc1)NC(=O)CNC(=O)c1ccc2c(c1)C(=O)OC21c2ccc(O)cc2Oc2cc(O)ccc21)C(C)C)C(=O)N[C@H](C(=O)N[C@H](C(=O)N1CCC[C@H]1C(=O)N[C@@H](CC(N)=O)C(=O)N[C@H](C(=O)N1CCC[C@H]1C(=O)N[C@@H](CCC(N)=O)C(=O)N[C@@H](CCCCN)C(=O)N1CCC[C@H]1C(=O)N[C@@H](CC(N)=O)C(=O)N[C@@H](CC(C)C)C(=O)N[C@@H](CCC(N)=O)C(=O)O)[C@@H](C)OP(=O)(O)O)C(C)C)[C@@H](C)O [Mdb1 pT113] (5FAM-GYGGVMTVPN[pT]PQKPNLQ-OH)
Kd (Rad4-BRCT1,2 WT): low micromolar affinity | Kd (Rad4-BRCT1,2 K56E): largely unaffected | Kd (Rad4-BRCT1,2 K151E): substantially reduced compared to wild-type | Kd (Rad4-BRCT3,4): no binding
